Patent US20210386367A1, “DEVICES AND SYSTEMS FOR GASTROINTESTINAL MICROBIOME DETECTION AND MANIPULATION” (Progenity, Inc., priority 2018, published 2021)
Values after ≈ are worked out from the molar mass of the structure shown.

How the values were obtained:
[1] = test system: Streptococcus spp. spontaneous mutants; assay: organism not typed; format: cell-based
Protocol: Select isolates were subcultured onto agar containing drug at the selection concentration, were identified by MALDI, and were frozen for broth microdilution MIC testing as described below.
To determine whether colonies growing on drug selection plates had elevated MIC values to the selecting antibiotic, susceptibility testing by broth microdilution was conducted on isolated mutants following methodology recommended by CLSI (1), (2), and (3) “Performance Standards for Antimicrobial Susceptibility Testing; Twenty-Eighth Informational Supplement.,” CLSI document M100-S28, 2018.
All wells in columns 2 through 12 of a standard 96-well microdilution plate (Costar 3795) were filled with 150 μL of the appropriate diluent. Then, 300 μL of the test agents were added to the wells of column 1 of the plates at […] the highest final concentration to be tested. Serial two-fold dilutions were made across the rows through column 11 using the Biomek 2000. The wells of column 12 contained no drug and served as the growth control wells. This plate served as the “mother plate” from which selected MIC assay plates or “daughter plates” were made.
2 μL of drug solution from each well of a mother plate was added to each corresponding well of the daughter plate in a single step. A standardized inoculum of each aerobic test organism was prepared per CLSI methods to equal a 0.5 McFarland standard, followed by a dilution of 1:20 in MHB II. The plates were then inoculated with 10 μL of the diluted inoculum using the Biomek 2000 from low to high drug concentration, resulting in a final concentration of approximately 5×10^5 CFU/mL. An un-inoculated plate was incubated for the purpose of assessing solubility of the drug in the test media.
The plates for the aerobic tests were stacked 3-4 high, covered with a sterile lid on the top plate, and incubated aerobically at 35° C. for 18-20 hr. The MIC was recorded as the lowest concentration of drug that inhibited visible growth of the organism.

[2] = test system: Streptococcus spp. spontaneous mutants; conditions: S. pneumoniae ATCC 49619; CLSI QC range shown in parentheses; cited from earlier work

Question: With `CC[C@H]1OC(=O)[C@H](C)[C@@H](O[C@H]2C[C@@](C)(OC)[C@@H](O)[C@H](C)O2)[C@H](C)[C@@H](O[C@@H]2O[C@H](C)C[C@H](N(C)C)[C@H]2O)[C@](C)(O)C[C@@H](C)CN(C)[C@H](C)[C@@H](O)[C@]1(C)O` [AZI] as the compound, how does the MIC ([1]; S. agaloctiae ATCC 13813, selected on rifaximin 4X MIC, Colony A) read?
Answer: 0.015 µg/mL (≈ 0.02 µM)

Question: And the MIC ([1]; S. agaloctiae ATCC 13813, selected on rifaximin 4X MIC, Colony B)?
Answer: 0.015 µg/mL (≈ 0.02 µM)

Question: And the MIC ([1]; S. agaloctiae ATCC 13813, selected on rifaximin 8X MIC, Colony A)?
Answer: 0.015 µg/mL (≈ 0.02 µM)

Question: What about the MIC ([1]; S. agaloctiae ATCC 13813, selected on rifaximin 8X MIC, Colony B) of the same compound?
Answer: 0.015 µg/mL (≈ 0.02 µM)

Question: What about the MIC ([1]; S. agaloctiae ATCC 13813 Parent) of the same compound?
Answer: 0.015 µg/mL (≈ 0.02 µM)

Question: What about the MIC ([1]; S. pneumoniae ATCC 49619, selected on rifaximin 4X MIC, Colony A) of the same compound?
Answer: 0.03 µg/mL (≈ 0.0401 µM)

Question: What about the MIC ([1]; S. pneumoniae ATCC 49619, selected on rifaximin 4X MIC, Colony B) of the same compound?
Answer: 0.03 µg/mL (≈ 0.0401 µM)

Question: What about the MIC ([1]; S. pneumoniae ATCC 49619, selected on rifaximin 8X MIC, Colony A) of the same compound?
Answer: 0.03 µg/mL (≈ 0.0401 µM)

Question: And the MIC ([1]; S. pneumoniae ATCC 49619, selected on rifaximin 8X MIC, Colony B)?
Answer: 0.03 µg/mL (≈ 0.0401 µM)

Question: What about the MIC ([1]; S. pneumoniae ATCC 49619 Parent) of the same compound?
Answer: 0.06 µg/mL (≈ 0.0801 µM)

Question: What about the MIC ([1]; S. pyogenes ATCC 49399, selected on rifaximin 4X MIC, Colony A) of the same compound?
Answer: 0.06 µg/mL (≈ 0.0801 µM)

Question: What about the MIC ([1]; S. pyogenes ATCC 49399, selected on rifaximin 4X MIC, Colony B) of the same compound?
Answer: 0.06 µg/mL (≈ 0.0801 µM)

Question: What about the MIC ([1]; S. pyogenes ATCC 49399, selected on rifaximin 8X MIC, Colony A) of the same compound?
Answer: 0.06 µg/mL (≈ 0.0801 µM)

Question: And the MIC ([1]; S. pyogenes ATCC 49399, selected on rifaximin 8X MIC, Colony B)?
Answer: 0.06 µg/mL (≈ 0.0801 µM)

Question: What about the MIC ([1]; S. pyogenes ATCC 49399 Parent) of the same compound?
Answer: 0.03 µg/mL (≈ 0.0401 µM)

Question: And the “MIC, CLSI QC range” value [2]?
Answer: (0.06-0.25) μg/mL
